In PubChem BioAssay AID489040 (Sanford-Burnham Center for Chemical Genomics, 2010) one finds EC50 data, which are given here for 89 molecules.

pEC50: −log10 of the molar value. The source made the active and inactive calls.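 How the source made its calls: active means mean half-maximal activating concentration from the dose-response fit at or below a set limit; inactive means the rest.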

This assay deals with CHO-XBP1 luciferase reporter, IRE1-XBP1 UPR activation. As to the kind of experiment: activators of IRE1-XBP1 UPR arm, dose response, counter-screen for apoptotic UPR arm activators, CHO-XBP1 cells, luminescence (AID 489040).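 Further: reporter read after six hours of compound exposure.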
As to `Oc1c(CN2CCc3ccccc3C2)cc(Cl)c2cccnc12`, the EC50 is > 80 µM (inactive).

Consider `O=C(C[C@H]1C[C@H](C(=O)N2CCCCC2)[C@@]2(CCc3ccccc3)c3[nH]c4ccc(Cl)cc4c3CCN2C1=O)NCCC1=CCCCC1`, for which the EC50 entry was “inactive”.

On to `CCOC(=O)c1c(-c2ccc(-c3ccccc3)cc2)csc1NC(=O)CNCCN(C)C`, for which the EC50 was > 80 µM (inactive).

On to `CC(C)N1CSC(=S)N(Cc2ccccc2)C1`, for which the EC50 was > 80 µM (inactive).

Take `CC(C)c1ccc(N2C(=O)CC(Sc3nc4ccccc4o3)C2=O)cc1` (centres undefined): the EC50 was > 80 µM (inactive).

With `CCCCCCCCCn1c2c(c(=N)c3c1CCC3)CCCC2`, the EC50 entry is “inactive”.

Consider `COc1cccc(-n2c(SCC(=O)N3CCc4ccccc43)nnc2-c2c[nH]c3ccccc23)c1`, for which the EC50 entry is “inactive”.

`COC(=O)c1cc(=O)n(Cc2ccco2)c(=Nc2ccc(F)c(Cl)c2)s1`: the EC50 was > 80 µM (inactive).

Regarding `Cc1ccc2oc(Nc3nc(-c4ccccc4)cc(=O)[nH]3)nc2c1`, the EC50 was > 80 µM (inactive).

As to `C/C(=N/NC(=O)c1ccc(C(C)(C)C)cc1)c1ccccn1`, the EC50 is > 80 µM (inactive).

As to `CC1=NOC(=O)/C1=C/c1ccc(-c2ccc(Cl)cc2)o1`, the EC50 was > 80 µM (inactive).

Turning to `O=C1NC(=S)NC(=O)C1=Cc1ccc(Br)s1`, the EC50 is > 80 µM (inactive).

For `CCOc1cc(/C=C2/C(=N)N3C=CSC3=NC2=O)ccc1OCCCOc1ccccc1C`, the pEC50 was 4.70.

Turning to `O=[N+]([O-])/C=C\c1ccc(N2CCOCC2)cc1`, the EC50 is > 80 µM (inactive).

In the case of `CCSC1(SCC)N=C(N)C2(C#N)C(c3ccc(OC)c(OC)c3OC)C12C#N` (centres undefined), the EC50 is > 80 µM (inactive).

As to `Brc1ccc(-c2ccc(/C=N/Nc3nncc(-c4ccccc4)n3)o2)cc1`, the EC50 entry is “inactive”.

On to `Oc1ccc(CN2CCc3ccccc3C2)c2cccnc12`, for which the EC50 is > 80 µM (inactive).

Consider `O=C(COc1ccc(/C=N/NC(=O)c2cc3ccccc3o2)cc1Br)Nc1ccccc1`, for which the pEC50 is 5.33.

As for `Cc1ccc(C)c(NC(=S)c2ccccn2)c1`, the EC50 is > 80 µM (inactive).

Regarding `Cc1cc(C(=O)CCl)c(C)n1CCc1ccccc1`, the EC50 was > 80 µM (inactive).

On to `CCOc1cc(/C=N/NC(N)=S)cc(Br)c1OCc1ccccc1C`, for which the EC50 is > 80 µM (inactive).

`COCc1ccc(O)c2ncccc12`: the EC50 entry was “inactive”.

As to `CC1=C(/C=C/C(C)=C/C=C/C(C)=C/C(=O)Nc2ccc(O)cc2)C(C)(C)CCC1`, the EC50 is > 80 µM (inactive).

As to `COc1ccccc1N=Cc1c(O)c2ccccc2oc1=O`, the pEC50 was 5.09.

Turning to `CC1=C/C(=N\OC(=O)/C=C/c2ccccc2)C(C)=CC1=O`, the EC50 was > 80 µM (inactive).

For `COc1cc2nc(NC(=O)c3ccc(Cl)cc3)sc(=O)c2cc1OC`, the EC50 was > 80 µM (inactive).

With `O=S(=O)(Nc1cccc2cccnc12)c1ccccc1`, the EC50 is > 80 µM (inactive).

On to `O=C(Cn1cc(/C=C\[N+](=O)[O-])c2ccccc21)Nc1ccccc1`, for which the EC50 was > 80 µM (inactive).

As for `Oc1cc(-c2cccnc2)cc2cccnc12`, the EC50 entry was “inactive”.

`CN=c1scc(-c2ccco2)n1/N=C/c1ccc(O)c(O)c1`: the EC50 was > 80 µM (inactive).

Consider `Cc1cc(C(=O)CCl)c(C)n1-c1cccc(S(=O)(=O)N2CCOCC2)c1`, for which the EC50 is > 80 µM (inactive).

Consider `O=c1c2ccccc2nc(/C=C/c2ccc([N+](=O)[O-])o2)n1-c1ccc(O)cc1`, for which the EC50 is > 80 µM (inactive).

As for `CS(=O)(=O)c1nc(-c2ccccc2)cc(-c2ccccc2)c1C#N`, the EC50 is > 80 µM (inactive).

Regarding `COc1ccc(C(=O)NCC(=O)N/N=C/c2ccc([N+](=O)[O-])o2)cc1OC`, the EC50 was > 80 µM (inactive).

Take `CCOC(=O)c1sc(N(Cc2ccccc2)C(=O)CCl)nc1C`: the pEC50 is 5.06.

Regarding `O=C(N/N=C/c1ccccn1)c1ccc(Cl)c(Cl)c1`, the EC50 was > 80 µM (inactive).

In the case of `CCOC(=O)N1CCN(Cc2cc(Cl)c3cccnc3c2O)CC1`, the EC50 is > 80 µM (inactive).

Take `CCCCCCCCCCn1c2c(c(=N)c3c1CCC3)CCC2`: the pEC50 is 4.70.

In the case of `Oc1c(N=Nc2ccccn2)ccc2ccccc12`, the EC50 is > 80 µM (inactive).

On to `C/C(=C\c1ccc(N(C)C)cc1)[N+](=O)[O-]`, for which the EC50 was > 80 µM (inactive).

For `Cc1ccc(NC(=O)c2ccc(N/N=C/c3cccc(O)c3)c([N+](=O)[O-])c2)cc1`, the EC50 was > 80 µM (inactive).

`O=C(/C=C/c1ccc(O)c(O)c1)c1ccccc1O`: the EC50 was > 80 µM (inactive).

Take `Cc1c(C(=O)c2cccc3ccccc23)c2cccc3c2n1[C@H](CN1CCOCC1)CO3`: the EC50 was > 80 µM (inactive).

As for `Cc1ccc(NN2C(=O)C=C(c3ccccc3)C2=O)cc1`, the EC50 was > 80 µM (inactive).

For `O=C(Nc1nc(-c2ccccn2)cs1)c1ccc(Br)s1`, the EC50 result is “inactive”.

Turning to `CCCn1c(CC)nc([N+](=O)[O-])c1S(=O)(=O)c1ccccc1`, the EC50 is > 80 µM (inactive).

For the molecule `COc1ccc(-n2c(C)cc(C(=O)CCl)c2C)cc1`, the pEC50 was 5.33.

For `Oc1ccc(CN2CCC(Cc3ccccc3)CC2)c2cccnc12`, the EC50 was > 80 µM (inactive).

As to `Cc1noc2ncnc(Sc3ccc(Br)cc3)c12`, the EC50 is > 80 µM (inactive).

On to `COc1ccccc1-c1cc(C(F)(F)F)nc(S(=O)(=O)CCCC(=O)N2CCCCC2C)n1` (centres undefined), for which the EC50 was > 80 µM (inactive).

Consider `O=[N+]([O-])c1ccc(C=Nc2ccc(Cl)c([N+](=O)[O-])c2)s1`, for which the EC50 was > 80 µM (inactive).

With `Oc1c(Cl)cc(CN2CCCCC2)c2cccnc12`, the EC50 is > 80 µM (inactive).

Take `Brc1ccccc1CN1CCN(Cc2c[nH]c3ccccc23)CC1`: the EC50 was > 80 µM (inactive).

As to `O=C(Nc1nc(-c2ccc(F)c(F)c2)cs1)Nc1ccc(F)cc1F`, the EC50 was > 80 µM (inactive).

Consider `COc1cccc2sc(Nc3nnc(-c4cccs4)o3)nc12`, for which the EC50 was > 80 µM (inactive).

For `COc1ccc(OC)c(/C=C/C(=O)N2C(=O)c3cccc(N)c3C2=O)c1`, the EC50 is > 80 µM (inactive).

Take `CCc1ccc(-n2c(SCC(=O)c3ccc4c(c3)NC(=O)CO4)nc3ccccc3c2=O)cc1`: the pEC50 was 4.98.

On to `COc1ccc(-c2oc(NC(=O)CCl)c(C#N)c2-c2ccc(OC)cc2)cc1`, for which the EC50 was > 80 µM (inactive).

As to `COCc1cc(C)nc(OCC(=O)N/N=C/c2ccc(-c3cc([N+](=O)[O-])ccc3Cl)o2)c1C#N`, the pEC50 was 4.88.

Turning to `COc1ccc(/C=C2\CN(Cc3ccccc3)C/C(=C\c3ccc(OC)c(O)c3)C2=O)cc1O`, the EC50 was > 80 µM (inactive).

Regarding `O=C1Nc2ccccc2/C1=C/C(=O)c1cccs1`, the EC50 was > 80 µM (inactive).

Regarding `O=C1C(Cl)=C(NC(=O)c2ccccc2)C(=O)C(Cl)=C1NC(=O)c1ccccc1`, the EC50 was > 80 µM (inactive).

As to `Cn1cc(/C=C2\SC(=O)NC2=S)c2ccccc21`, the EC50 entry was “inactive”.

Regarding `Oc1ccc(/C=N/Nc2ccnc3cc(Cl)ccc23)cc1O`, the pEC50 is 5.06.

In the case of `CCOC(=O)c1c2ccc(OCC(=O)N/N=C/c3ccc(C)cc3)cc2n2ccccc12`, the EC50 is > 80 µM (inactive).

As to `O=C(N/N=C(\c1ccccc1)c1cccnc1)c1cccc(F)c1`, the EC50 was > 80 µM (inactive).

Regarding `Oc1ccc(/C=N/Nc2ccc(C(F)(F)F)cn2)cc1O`, the EC50 was > 80 µM (inactive).

In the case of `N#Cc1cc([N+](=O)[O-])c(-n2nnc3ccccc32)c([N+](=O)[O-])c1`, the EC50 entry was “inactive”.

`COc1cc(C(Nc2ccccn2)c2ccc3ccc(C)nc3c2O)cc(OC)c1O` (centres undefined): the EC50 is > 80 µM (inactive).

Take `S=C(Nc1ccccn1)c1ccccn1`: the EC50 is > 80 µM (inactive).

In the case of `O=C(/C(=C/c1cccc(Cl)c1)c1nc2ccccc2[nH]1)c1ccccc1`, the EC50 is > 80 µM (inactive).

In the case of `O=C(Nc1ccc(-c2nc3ncccc3o2)cc1)c1ccc([N+](=O)[O-])o1`, the EC50 was > 80 µM (inactive).

As for `COc1ccc(C(=O)Cn2c(C(=O)/C=C/c3ccccc3)nc3ccccc32)cc1`, the EC50 is > 80 µM (inactive).

In the case of `O=c1[nH]c(=S)n(C2CC2)c(O)c1C=Nc1cccc(C(F)(F)F)c1`, the EC50 was > 80 µM (inactive).

Consider `Cc1cccnc1Nc1nc(-c2ccc(O)c(O)c2)cs1`, for which the EC50 result is “inactive”.

Take `COC(=O)[C@@H]1[C@@H](C#N)C2(c3ccccc3-c3ccccc32)N(c2ccc(Cl)cc2)N1C#N`: the EC50 was > 80 µM (inactive).

For the molecule `CCOc1ccc(NC(=S)NC(=O)/C=C/c2ccc(OC)c(OC)c2)c([N+](=O)[O-])c1`, the EC50 is > 80 µM (inactive).

For `S=C1SCN(Cc2ccccn2)CN1Cc1ccco1`, the EC50 is > 80 µM (inactive).

Regarding `O=C(Nc1ccc(-c2nc3cc(NC(=O)c4cccs4)ccc3o2)cc1)c1cccs1`, the pEC50 is 5.19.

`CN(c1ccccc1)S(=O)(=O)c1cccc(C(=O)NCCc2ccc(O)c(O)c2)c1`: the pEC50 is 5.01.

Take `Cn1c2ccccc2c2cc(/C=N/NC(=O)c3cc(O)ccc3O)ccc21`: the EC50 was > 80 µM (inactive).

As for `COc1cc(C(=O)Oc2c(CN3CCOCC3)cc(Cl)c3cccnc23)cc(OC)c1OC`, the EC50 was > 80 µM (inactive).

`O=C(Nc1ccc(N2CCOCC2)cc1)c1ccc([N+](=O)[O-])o1`: the EC50 is > 80 µM (inactive).

For `CC(C)N1C(=O)/C(=C/C=C/c2ccco2)C(=O)N(Cc2ccco2)C1=O`, the EC50 is > 80 µM (inactive).

For the molecule `O=c1c2c3c(sc2ncn1/N=C/c1ccc([N+](=O)[O-])o1)CCCC3`, the EC50 is > 80 µM (inactive).

Consider `O=C(NC1CCCC1)C(c1ccc(F)cc1)N(Cc1ccc(Cl)cc1)C(=O)CCl` (centres undefined), for which the EC50 was > 80 µM (inactive).

Take `CSc1nnc(NC(=O)c2nc(S(=O)(=O)Cc3ccccc3)ncc2Cl)s1`: the EC50 is > 80 µM (inactive).

Consider `Cc1ccc(-c2nc(N/N=C/c3cccc([N+](=O)[O-])c3)c3ccccc3n2)cc1`, for which the EC50 was > 80 µM (inactive).

`O=[N+]([O-])c1ccc(Sc2nnnn2-c2ccccc2)nc1`: the EC50 is > 80 µM (inactive).
